From PubChem BioAssay (NCI)
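Each compound was tested at five concentrations against cells in 96-well plates for 48 hours. Here, GI50 denotes the concentration required for 50% inhibition of growth. The concentration for full growth arrest is given as TGI.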

Tests used:
Test in all cases: NCI tumour cell line growth inhibition, 48 h
[1] = test system: HOP-62 NSCLC
[2] = test system: SF-268 CNS
[3] = test system: KM12 colon
[4] = test system: OVCAR-4 ovarian
[5] = test system: MDA-MB-435
[6] = test system: NCI-H23 lung
[7] = test system: HCC-2998 colon
[8] = test system: T-47D breast
[9] = test system: NCI-H460 lung
[10] = test system: TK-10 renal
[11] = test system: SW-620 colon
[12] = test system: SF-295 CNS
[13] = test system: SNB-19 CNS
[14] = test system: LOX IMVI melanoma
[15] = test system: UACC-257 melanoma
[16] = test system: 786-0 renal
[17] = test system: NCI/ADR-RES ovarian
[18] = test system: CCRF-CEM leukemia
[19] = test system: U251 CNS
[20] = test system: UO-31 renal
[21] = test system: A498 renal
[22] = test system: SK-OV-3 ovarian
[23] = test system: NCI-H522 lung
[24] = test system: SK-MEL-28 melanoma
[25] = test system: BT-549 breast
[26] = test system: ACHN renal
[27] = test system: SN12C renal
[28] = test system: MDA-MB-231 breast
[29] = test system: SK-MEL-5 melanoma
[30] = test system: SF-539 CNS
[31] = test system: DU-145 prostate
[32] = test system: PC-3 prostate
[33] = test system: OVCAR-3 ovarian
[34] = test system: SK-MEL-2 melanoma
[35] = test system: A549 NSCLC
[36] = test system: OVCAR-5 ovarian
[37] = test system: EKVX NSCLC
[38] = test system: MCF7 breast
[39] = test system: RPMI-8226 leukemia
[40] = test system: MOLT-4 leukemia
[41] = test system: CAKI-1 renal
[42] = test system: RXF 393 renal
[43] = test system: M14 melanoma
[44] = test system: SNB-75 CNS
[45] = test system: OVCAR-8 ovarian
[46] = test system: NCI-H226 lung
[47] = test system: HOP-92 NSCLC
[48] = test system: K-562 leukemia
[49] = test system: HS 578T breast
[50] = test system: HCT-15 colon
[51] = test system: UACC-62 melanoma
[52] = test system: COLO 205 colon
[53] = test system: HT29 colon
[54] = test system: HCT-116 colon
[55] = test system: IGROV1 ovarian

Structure (SMILES): C=C1C(=O)O[C@@H]2C1CC(=O)C(C)CC/C=C(\C)CCC[C@H](C)[C@H]2OC(C)=O (some centres undefined)
- GI50 [1]: 18.2 µM
- TGI [1]: 33.3 µM
- GI50 [2]: 20.5 µM
- TGI [2]: 41.3 µM
- GI50 [3]: 12.8 µM
- TGI [3]: 29.1 µM
- GI50 [4]: 15.2 µM
- TGI [4]: 32 µM
- GI50 [5]: 14.7 µM
- TGI [5]: 28 µM
- GI50 [6]: 13.9 µM
- TGI [6]: 29.5 µM
- GI50 [7]: 15.6 µM
- TGI [7]: 29.9 µM
- GI50 [8]: 20.4 µM
- TGI [8]: 58.5 µM
- GI50 [9]: 21.2 µM
- TGI [9]: 43.6 µM
- GI50 [10]: 1.79 µM
- TGI [10]: 8.43 µM
- GI50 [11]: 9.18 µM
- TGI [11]: 21.9 µM
- GI50 [12]: 19.8 µM
- TGI [12]: 36.2 µM
- GI50 [13]: 25.5 µM
- TGI [13]: > 100 µM
- GI50 [14]: 2.15 µM
- TGI [14]: 6.22 µM
- GI50 [15]: 18.4 µM
- TGI [15]: 36.6 µM
- GI50 [16]: 17 µM
- TGI [16]: 32.2 µM
- GI50 [17]: 15.3 µM
- TGI [17]: 40.9 µM
- GI50 [18]: 2 µM
- TGI [18]: 4.75 µM
- GI50 [19]: 13.9 µM
- TGI [19]: 28.4 µM
- GI50 [20]: 11.9 µM
- TGI [20]: 29.5 µM
- GI50 [21]: 20.7 µM
- TGI [21]: 35.4 µM
- GI50 [22]: 17 µM
- TGI [22]: 34.1 µM
- GI50 [23]: 15.9 µM
- TGI [23]: 41.6 µM
- GI50 [24]: 11.8 µM
- TGI [24]: 25.3 µM
- GI50 [25]: 13 µM
- TGI [25]: 30.2 µM
- GI50 [26]: 11.4 µM
- TGI [26]: 24.1 µM
- GI50 [27]: 5.46 µM
- TGI [27]: 21.6 µM
- GI50 [28]: 15.5 µM
- TGI [28]: 33.5 µM
- GI50 [29]: 11.5 µM
- TGI [29]: 23.6 µM
- GI50 [30]: 18.3 µM
- TGI [30]: 34.6 µM
- GI50 [31]: 15 µM
- TGI [31]: 31.7 µM
- GI50 [32]: 13.7 µM
- TGI [32]: 30.6 µM
- GI50 [33]: 10.2 µM
- TGI [33]: 21.8 µM
- GI50 [34]: 17.6 µM
- TGI [34]: 45.5 µM
- GI50 [35]: 19.6 µM
- TGI [35]: 38.7 µM
- GI50 [36]: 18 µM
- TGI [36]: 34.6 µM
- GI50 [37]: 16.3 µM
- TGI [37]: 31.5 µM
- GI50 [38]: 4.81 µM
- TGI [38]: 35.6 µM
- GI50 [39]: 3.99 µM
- TGI [39]: 19 µM
- GI50 [40]: 10.9 µM
- TGI [40]: 35 µM
- GI50 [41]: 11.9 µM
- TGI [41]: 24.4 µM
- GI50 [42]: 7.9 µM
- TGI [42]: 24.4 µM
- GI50 [43]: 4.24 µM
- TGI [43]: 16 µM
- GI50 [44]: 14.9 µM
- TGI [44]: 29.8 µM
- GI50 [45]: 17.9 µM
- TGI [45]: 41.1 µM
- GI50 [46]: 15.1 µM
- TGI [46]: 30.5 µM
- GI50 [47]: 1.64 µM
- TGI [47]: 9.12 µM
- GI50 [48]: 3.52 µM
- TGI [48]: 15.3 µM
- GI50 [49]: 15.2 µM
- TGI [49]: 36 µM
- GI50 [50]: 13.7 µM
- TGI [50]: 30.4 µM
- GI50 [51]: 11.6 µM
- TGI [51]: 24.5 µM
- GI50 [52]: 5.34 µM
- TGI [52]: > 100 µM
- GI50 [53]: 5.28 µM
- TGI [53]: > 100 µM
- GI50 [54]: 1.62 µM
- TGI [54]: 3.62 µM
- GI50 [55]: 10.1 µM
- TGI [55]: 26.3 µM

Structure (SMILES): O=C1C2C(C(=O)N1c1ccc(OCc3ccccc3)cc1)C1c3ccccc3C2C2CCCCN21 (centres undefined)
- GI50 [13]: 47.6 µM
- GI50 [19]: 41.5 µM
- GI50 [20]: 32.7 µM
- GI50 [23]: 53.5 µM
- GI50 [39]: 64 µM
- GI50 [44]: 61.4 µM
- GI50 [48]: 59.8 µM
- GI50 [52]: 73.3 µM
- GI50 [53]: 79.7 µM
